Results as given in ChEMBL document CHEMBL1201862, “PubChem BioAssay data set” (2004).
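These data come from cells grown in 96-well plates and exposed to compound for 48 hours at five concentrations. GI50: concentration for 50% inhibition of growth.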 Activity calls are given as the source filed them. Rule as the data show it: active = GI50 up to about 1.1 µM and inactive = higher.

Assays:
Test in all cases: NCI anticancer screen, dose series, 48 h
SK-MEL-2 = system: SK-MEL-2
T47D = system: T47D
SF-539 = system: SF-539
SNB-75 = system: SNB-75
U-251 = system: U-251
SN12C = system: SN12C
HCC 2998 = system: HCC 2998
COLO 205 = system: COLO 205
OVCAR-8 = system: OVCAR-8
ACHN = system: ACHN
NCI-H226 = system: NCI-H226
MDA-MB-231 = system: MDA-MB-231
NCI-H23 = system: NCI-H23
OVCAR-3 = system: OVCAR-3
HOP-62 = system: HOP-62
NCI/ADR-RES = system: NCI/ADR-RES
PC-3 = system: PC-3
HL-60 = system: HL-60
RXF 393 = system: RXF 393

Measured: GI50

COC(=O)c1ccccc1/C=C1\Cc2cc3c(cc2C1=O)CCC3
inactive: SK-MEL-2 20.7 µM | T47D > 100 µM | SF-539 > 100 µM | SNB-75 34.9 µM | U-251 43 µM | SN12C > 100 µM | HCC 2998 > 100 µM | COLO 205 > 100 µM | OVCAR-8 > 100 µM | ACHN > 100 µM | NCI-H226 > 100 µM | MDA-MB-231 > 100 µM | NCI-H23 > 100 µM | OVCAR-3 > 100 µM | HOP-62 29.6 µM | NCI/ADR-RES > 100 µM | PC-3 8.51 µM | HL-60 > 100 µM

C=CC[C@@H](N)C(=O)N(C)[C@@H](C)[C@@H](O)c1ccccc1
inactive: SK-MEL-2 > 100 µM | T47D > 100 µM | SF-539 > 100 µM | SNB-75 5.77 µM | U-251 > 100 µM | COLO 205 > 100 µM | OVCAR-8 > 100 µM | ACHN > 100 µM | NCI-H226 > 100 µM | MDA-MB-231 > 100 µM | NCI-H23 > 100 µM | OVCAR-3 > 100 µM | HOP-62 > 100 µM | NCI/ADR-RES > 100 µM | PC-3 > 100 µM | HL-60 > 100 µM

O=[N+]([O-])c1ccc(CSc2nn(Cc3ccc([N+](=O)[O-])cc3)cc3ncnc2-3)cc1
inactive: SK-MEL-2 19.7 µM | T47D 44.6 µM | SF-539 32 µM | SNB-75 34.1 µM | U-251 > 10 µM | SN12C 57.4 µM | HCC 2998 35.6 µM | COLO 205 39.5 µM | OVCAR-8 33.2 µM | ACHN 27.5 µM | NCI-H226 38.4 µM | MDA-MB-231 34.4 µM | NCI-H23 26.4 µM | OVCAR-3 56.2 µM | HOP-62 31.8 µM | NCI/ADR-RES 44 µM | PC-3 35.5 µM | HL-60 21.5 µM

COC1=CC(=O)N(C)C(O)C1(C#N)OC1OC(CO)C(O)C(O)C1O (stereo unspecified)
inactive: SK-MEL-2 > 100 µM | T47D > 100 µM | SF-539 > 100 µM | SNB-75 > 100 µM | U-251 > 100 µM | SN12C > 100 µM | HCC 2998 > 100 µM | COLO 205 > 100 µM | OVCAR-8 > 100 µM | ACHN > 100 µM | NCI-H226 > 100 µM | MDA-MB-231 > 100 µM | NCI-H23 > 100 µM | OVCAR-3 > 100 µM | HOP-62 > 100 µM | NCI/ADR-RES > 100 µM | PC-3 > 100 µM | HL-60 > 100 µM

O=C(COc1ccc(Cl)c(Cl)c1)N(Cc1ccccc1)Cc1ccc[n+](Cc2ccc(Cl)cc2S(=O)(=O)F)c1
inactive: SK-MEL-2 25.4 µM | T47D 59.7 µM | SF-539 12.9 µM | SNB-75 > 100 µM | U-251 25.8 µM | SN12C > 100 µM | COLO 205 72.3 µM | OVCAR-8 > 100 µM | ACHN 56.4 µM | NCI-H226 > 100 µM | MDA-MB-231 14.8 µM | NCI-H23 41.3 µM | OVCAR-3 65.5 µM | HOP-62 > 100 µM | NCI/ADR-RES > 100 µM | PC-3 > 100 µM | RXF 393 > 100 µM | HL-60 30.9 µM

CCn1cnc2c(NC(C)=O)ncnc21
inactive: SK-MEL-2 > 100 µM | T47D > 100 µM | SF-539 > 100 µM | SNB-75 1.33 µM | U-251 > 100 µM | SN12C > 100 µM | HCC 2998 > 100 µM | COLO 205 > 100 µM | OVCAR-8 > 100 µM | ACHN > 100 µM | NCI-H226 > 100 µM | MDA-MB-231 > 100 µM | NCI-H23 > 100 µM | OVCAR-3 > 100 µM | HOP-62 > 100 µM | NCI/ADR-RES > 100 µM | PC-3 > 100 µM | RXF 393 > 100 µM

O=C1c2c(O)cc(O)cc2C(C2OC(CO)C(O)C(O)C2O)c2cc(CO)cc(O)c21 (stereo unspecified)
inactive: T47D > 100 µM | SNB-75 22.5 µM | U-251 > 100 µM | SN12C > 100 µM | HCC 2998 > 100 µM | COLO 205 > 100 µM | OVCAR-8 > 100 µM | ACHN > 100 µM | NCI-H226 > 100 µM | MDA-MB-231 > 100 µM | NCI-H23 > 100 µM | OVCAR-3 > 100 µM | HOP-62 > 100 µM | NCI/ADR-RES > 100 µM | PC-3 > 100 µM | HL-60 > 100 µM

CC1(C)OC(=O)C(C)(C)C(=O)O1
inactive: SK-MEL-2 > 100 µM | T47D > 100 µM | SF-539 > 100 µM | SNB-75 > 100 µM | U-251 > 100 µM | SN12C > 100 µM | HCC 2998 > 100 µM | COLO 205 > 100 µM | OVCAR-8 > 100 µM | ACHN > 100 µM | NCI-H226 > 100 µM | MDA-MB-231 > 100 µM | NCI-H23 > 100 µM | HOP-62 > 100 µM | NCI/ADR-RES > 100 µM | PC-3 > 100 µM | HL-60 > 10 µM

CCC(C(=O)c1cccs1)C(O)(C(F)(F)F)C(F)(F)F (stereo unspecified)
inactive: SK-MEL-2 > 100 µM | T47D > 100 µM | SF-539 > 100 µM | SNB-75 > 100 µM | U-251 > 100 µM | SN12C > 100 µM | COLO 205 > 100 µM | OVCAR-8 > 100 µM | ACHN > 100 µM | NCI-H226 > 100 µM | MDA-MB-231 > 100 µM | NCI-H23 > 100 µM | OVCAR-3 > 100 µM | HOP-62 > 100 µM | NCI/ADR-RES > 100 µM | PC-3 > 100 µM | RXF 393 > 100 µM | HL-60 3.39 µM

CC(=O)OCC(=O)[C@@]12OC(C)(C)O[C@@H]1C[C@H]1[C@@H]3CC=C4C[C@@H](O)CC[C@]4(C)[C@H]3CC[C@@]12C
inactive: SK-MEL-2 > 100 µM | T47D 35.5 µM | SF-539 30.8 µM | SNB-75 13.9 µM | U-251 58.6 µM | SN12C 43.9 µM | COLO 205 > 100 µM | OVCAR-8 36.7 µM | ACHN 92.9 µM | NCI-H226 > 100 µM | MDA-MB-231 61.5 µM | NCI-H23 57.7 µM | OVCAR-3 > 100 µM | HOP-62 32.2 µM | NCI/ADR-RES 66.5 µM | PC-3 > 100 µM | RXF 393 19.9 µM | HL-60 > 100 µM

C[C@H]1CN[C@@H]2[C@@H](C)[C@H]3[C@@H](C[C@H]4[C@@H]5CC[C@H]6C[C@@H](N)CC[C@]6(C)[C@H]5CC[C@]34C)O[C@@]2(O)C1
inactive: SK-MEL-2 3.06 µM | T47D 2.23 µM | SF-539 1.27 µM | SNB-75 2.44 µM | U-251 1.67 µM | SN12C 1.42 µM | HCC 2998 1.8 µM | COLO 205 1.51 µM | OVCAR-8 2.04 µM | ACHN 2.65 µM | NCI-H226 2.38 µM | MDA-MB-231 1.9 µM | NCI-H23 12.9 µM | OVCAR-3 2.03 µM | NCI/ADR-RES 2.54 µM | PC-3 2.79 µM | HL-60 1.64 µM

CC1=CC(C)C(C)N(CCNC(=O)Nc2ccccc2)c2ccccc21 (stereo unspecified)
inactive: SK-MEL-2 23.1 µM | T47D 21.3 µM | SF-539 21.4 µM | SNB-75 27.3 µM | SN12C 25.9 µM | HCC 2998 18.1 µM | COLO 205 16.6 µM | OVCAR-8 15.5 µM | ACHN 15.8 µM | NCI-H226 22.1 µM | MDA-MB-231 13.3 µM | NCI-H23 17.6 µM | OVCAR-3 16 µM | HOP-62 22.2 µM | NCI/ADR-RES 18.2 µM | PC-3 13.2 µM | RXF 393 11.5 µM

CC[C@]12C=CCN3CC[C@@]4(c5cc(Br)c(OC)cc5N(C)[C@H]4[C@@](O)(C(=O)NC(Cc4c[nH]c5ccccc45)C(=O)OC)[C@@H]1O)[C@@H]32 (stereo partly specified)
inactive: SK-MEL-2 25.2 µM | T47D 5.2 µM | SF-539 16.4 µM | SNB-75 > 100 µM | U-251 5.04 µM | SN12C 29.4 µM | COLO 205 3.46 µM | OVCAR-8 6.59 µM | ACHN 17.5 µM | NCI-H226 10.8 µM | MDA-MB-231 30.6 µM | NCI-H23 45.1 µM | OVCAR-3 9.16 µM | HOP-62 12.6 µM | NCI/ADR-RES 7.91 µM | PC-3 8.2 µM | RXF 393 19.1 µM | HL-60 13.5 µM

CC(C)(OCc1ccccc1)c1ccccc1P(c1ccccc1)c1ccccc1
inactive: SK-MEL-2 73.5 µM | T47D 28.4 µM | SF-539 > 100 µM | SNB-75 > 100 µM | U-251 27.9 µM | SN12C 46 µM | COLO 205 27 µM | OVCAR-8 39.9 µM | ACHN 44.8 µM | NCI-H226 69.2 µM | MDA-MB-231 65 µM | NCI-H23 21.7 µM | OVCAR-3 46.9 µM | HOP-62 60 µM | NCI/ADR-RES 50.7 µM | PC-3 33.3 µM | RXF 393 > 100 µM | HL-60 13.5 µM

C=C(C)[C@@H]1CC[C@]2(C(=O)OC)CC[C@]3(C)[C@H](CC[C@@H]4[C@@]5(C)CC[C@H](O)C(C)(C)[C@@H]5CC[C@]43C)[C@@H]12 [METHYL BETULINATE]
inactive: T47D 12 µM | SF-539 13.7 µM | SNB-75 21.6 µM | U-251 17.8 µM | SN12C 16.1 µM | OVCAR-8 21.5 µM | ACHN 16.9 µM | NCI-H226 20 µM | MDA-MB-231 34 µM | NCI-H23 30.3 µM | OVCAR-3 19.8 µM | HOP-62 18.8 µM | NCI/ADR-RES 19 µM | PC-3 16.7 µM | RXF 393 14.5 µM | HL-60 35.5 µM
